We go through two molecules from ChEMBL document CHEMBL5370659 (J Med Chem, 2023).

The nature of data set [1]: Plasma protein binding in human. It counts as ADME, cell-free. To be noted: read-out: PPB (converted).
A short description of data set [2]: Brain homogenate binding in mouse. It counts as ADME, tissue-based.
In data set [3] the target is T1, Tryptophan 5-hydroxylase 1 (Homo sapiens, UniProt P17752).
T1 sequence (P17752 whole entry): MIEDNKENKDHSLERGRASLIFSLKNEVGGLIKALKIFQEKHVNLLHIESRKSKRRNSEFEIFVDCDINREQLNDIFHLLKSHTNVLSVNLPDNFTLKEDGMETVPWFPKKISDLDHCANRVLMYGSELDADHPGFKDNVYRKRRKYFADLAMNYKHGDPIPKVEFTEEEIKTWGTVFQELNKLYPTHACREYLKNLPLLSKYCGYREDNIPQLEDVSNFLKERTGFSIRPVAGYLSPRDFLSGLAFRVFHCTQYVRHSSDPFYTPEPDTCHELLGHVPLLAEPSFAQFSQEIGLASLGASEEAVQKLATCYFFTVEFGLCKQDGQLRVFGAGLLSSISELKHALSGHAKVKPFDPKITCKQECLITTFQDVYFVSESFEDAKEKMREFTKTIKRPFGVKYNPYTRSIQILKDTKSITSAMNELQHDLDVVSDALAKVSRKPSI
The data set is described as follows: Inhibition of recombinant MBP-tagged full length human THP1 using L-Trp as substrate assessed as formation of 5-HTP by measuring fluorescent property.

Data set [4] in a line: Brain homogenate binding in rat. It counts as ADME, tissue-based.
Data set [5] is described as follows: Metabolic stability in human hepatocytes assessed as half life. It counts as ADME, cell-based, Hepatocyte.
Data set [6] in a line: Metabolic stability in rat hepatocytes assessed as half life. It counts as ADME, cell-based, Hepatocyte.
The nature of data set [7]: Metabolic stability in rat hepatocytes assessed as intrinsic clearance. It counts as ADME, cell-based, Hepatocyte. Particulars: read-out: CLH.
For data set [8], the target named is T2, Tryptophan 5-hydroxylase 2 (Homo sapiens, UniProt Q8IWU9).
T2 sequence (Q8IWU9 whole entry): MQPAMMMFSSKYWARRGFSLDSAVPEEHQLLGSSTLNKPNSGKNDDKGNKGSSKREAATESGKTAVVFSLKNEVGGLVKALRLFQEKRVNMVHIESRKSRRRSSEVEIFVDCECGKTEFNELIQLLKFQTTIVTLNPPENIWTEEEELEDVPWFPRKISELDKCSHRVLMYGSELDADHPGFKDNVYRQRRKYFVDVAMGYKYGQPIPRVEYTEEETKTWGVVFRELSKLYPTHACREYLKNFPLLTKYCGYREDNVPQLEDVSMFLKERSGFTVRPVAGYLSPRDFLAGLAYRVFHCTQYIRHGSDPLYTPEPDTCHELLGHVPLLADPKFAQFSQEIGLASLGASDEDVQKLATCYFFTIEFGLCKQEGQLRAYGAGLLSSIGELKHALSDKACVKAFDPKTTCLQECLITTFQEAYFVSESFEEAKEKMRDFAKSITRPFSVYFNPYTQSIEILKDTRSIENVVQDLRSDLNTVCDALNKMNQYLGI
Description: Inhibition of recombinant MBP-tagged full length human THP2 using L-Trp as substrate assessed as formation of 5-HTP by measuring fluorescent property.

Data set [9] is described as follows: Permeability across apical to basal side in MDCK-MDR1 cells at pH 6.5/7.4 measured at 5 uM by LC-MS/MS analysis. To be noted: dog, MDCK-MDR1, pH 6.5. It counts as ADME, cell-based, Canis lupus familiaris.
The nature of data set [10]: Aqueous solubility of the compound in pH 7.4 PBS buffer by HPLC-UV analysis. It counts as physicochemical.
Data set [11] can be described thus: Apparent permeability across apical to basal side in human Caco-2 cells at pH 6.5/7.4 measured at 5 uM by LC-MS/MS analysis. It counts as ADME, cell-based. To be noted: Caco-2, pH 6.5.
Data set [12] is described as follows: Metabolic stability in human hepatocytes assessed as intrinsic clearance. It counts as ADME, cell-based, Hepatocyte. Particulars: read-out: CLH.
Data set [13] can be described thus: Apparent permeability across basal to apical side in human Caco-2 cells at pH 6.5/7.4 measured at 5 uM by LC-MS/MS analysis. It counts as ADME, cell-based. To be noted: Caco-2, pH 6.5.
A short description of data set [14]: Permeability across basal to apical side in MDCK-MDR1 cells at pH 6.5/7.4 measured at 5 uM by LC-MS/MS analysis. It counts as ADME, cell-based, Canis lupus familiaris. To be noted: dog, MDCK-MDR1, pH 6.5.
The nature of data set [15]: Plasma protein binding in rat. It counts as ADME, cell-free. To be noted: read-out: PPB (converted).

pIC50: −log10 of the molar value. ≈ marks a conversion by molar mass, not a printed value.

In general, pIC50 refers to −log10 of the IC50, conventionally taken in molar units. For orientation: half-life means the time in which the quantity being followed falls by half. By Papp A→B is commonly meant how fast a substance crosses the layer from the apical side. By solubility is commonly meant how much of the substance goes into solution per volume. Low values mean little dissolved substance, high ones much dissolved substance. Usually Papp B→A stands for the apparent permeability from the basolateral to the apical side of a cell layer. Turning to `CCn1c(=O)[nH]c(=O)c2c1nc(Cc1cn3cc(Cl)sc3n1)n2CC1COC1`, the values for the fraction unbound in [1] and in data set [15] were 0.38 and 0.5, respectively. For the same molecule, the Activity in data set [2] and in [4] was less than 1% each time. Also, the results for the pIC50 in data set [3] and in data set [8] were 6.93 and 7.43, respectively. For the same molecule, the half-life in data set [5] and in data set [6] was more than 2.42 h in each case. The CLint scaled is less than 17 mL/min/kg in data set [7] and less than 8.6 mL/min/kg in data set [12]. In addition, the apical-to-basolateral permeability (Papp A→B) at 5 µM in data set [9] was less than 0.64 ×10⁻⁶ cm/s; in [11], 0.26 ×10⁻⁶ cm/s. This molecule also had a solubility in [10] of 200 µM (≈ 84.2 µg/mL). Also, the Papp B→A at 5 µM in data set [13] turned out to be 29 ×10⁻⁶ cm/s; in data set [14] it was 30 ×10⁻⁶ cm/s.

As to `CCn1c(=O)[nH]c(=O)c2c1nc(Cc1cn3cc(C)sc3n1)n2CC1CC1`, the fraction unbound is 0.06 in [1] and 0.17 in data set [15]. For the same molecule, the pIC50 in data set [3] was 7.00; in data set [8], 7.64. Further, in [5], the half-life amounted to 1.12 h. Also, the t1/2 in data set [6] came out at 0.7 h. Further, the Papp A→B at 5 µM in [9] was determined as 0.45 ×10⁻⁶ cm/s; in data set [11] it was 1.29 ×10⁻⁶ cm/s. Also, the solubility in [10] was 173 µM (≈ 66.5 µg/mL). The CLint scaled in data set [12] worked out at 19 mL/min/kg. The figures for the basolateral-to-apical permeability (Papp B→A) at 5 µM in [13] and in data set [14] were 57 ×10⁻⁶ cm/s and 54 ×10⁻⁶ cm/s, respectively.
